Experiments:
[1] = test system: HEK293 FOP control reporter cell line; test: HEK293 FOP Assay (FOP control vector luciferase reporter); format: cell-based; conditions: Homo sapiens; HEK293 FOP control reporter cell line, 16 hours incubation, compound dilution series 50 μM to 15 nM
Procedure: In a parallel approach, HEK293 cells were cotransfected with the FOP control vector and pcDNA3. The FOP vector is identical to the TOP construct, but it contains instead of functional TCF elements a randomized, non-functional sequence. For this transfection a stable transfected cell line was generated as well, based on selection with Geneticin (1 mg/ml).
(§1) In preparation of the assay, the two cell lines were plated 24 hrs before beginning the test at 10000 cells per well in a 384 micro titre plate (MTP) in 30 μl growth medium. […] The recombinant human Wnt-3a was thereby applied between 2500 and 5 ng/ml in two-fold dilution steps.
(§2) Selective inhibitory activity for small molecules on the wildtype Wnt pathway was determined after parallel incubation of both (TOP and FOP) HEK293 reporter cell lines with a compound dilution series from 50 μM to 15 nM in steps of 3.16-fold dilutions in CAFTY buffer (130 mM sodium chloride, 5 mM potassium chloride, 20 mM HEPES, 1 mM magnesium chloride, 5 mM sodium bicarbonate, pH 7.4) containing 2 mM Ca^2+ and 0.01% BSA.
(§3) The compounds were thereby serially prediluted in 100% DMSO and thereafter 50 fold into the CAFTY compound dilution buffer (described above).

[2] = test system: wildtype Wnt signaling cascade; test: HEK293 TOP Assay (Super TopFlash luciferase reporter, Wnt-3a stimulated); format: cell-based; conditions: Homo sapiens, HEK293, 16 h, HEK293 TOP reporter cell line, Wnt-3a at EC50, 16 hours incubation, compound dilution series 50 μM to 15 nM
Procedure: In order to discover and characterize small molecules which inhibit the wildtype Wnt pathway, a cellular reporter assay was employed. The corresponding assay cell was generated by transfection of the mammalian cell line HEK293 (ATCC, #CRL-1573) with the Super TopFlash vector (Morin, Science 275, 1997, 1787-1790; Molenaar et al., Cell 86 (3), 1996, 391-399). The HEK293 cell line is cultivated at 37° C. and 5% CO2 in DMEM (Life Technologies, #41965-039), supplemented with 2 mM glutamine, 20 mM HEPES, 1.4 mM pyruvate, 0.15% Na-bicarbonate and 10% foetal bovine serum (GIBCO, #10270). Stable transfectants were generated by selection with 300 μg/ml Hygromycin.
as §1, §2, §3

| Structure (SMILES) | IC50 [2] [µM] | IC50 [1] [µM] |
| --- | --- | --- |
| CC1CCN(CC(C)(C)NC(=O)c2[nH]cnc2C(=O)Nc2ccc(NC(=O)c3ccccc3Cl)cc2)CC1 [Example 158, N^4-{4-[(2-chlorobenzoyl)amino]phenyl}-N^5-[2-methyl-1-(4-methylpiperidin-1-yl)propan-2-yl]-1H-imidazole-4,5-dicarboxamide] | 1.2 | 29 |
| O=C(Nc1ccc(NC(=O)c2nc[nH]c2C(=O)NCCN2CCCC(O)C2)cc1)c1ccccc1Cl (stereo not drawn) [Example 152, N^4-{4-[(2-chlorobenzoyl)amino]phenyl}-N^5-{2-[3-hydroxypiperidin-1-yl]ethyl}-1H-imidazole-4,5-dicarboxamide] | 0.46 | 30 |
| COC(=O)c1nc[nH]c1C(=O)Nc1ccc(NC(=O)c2ccc(F)cc2Cl)c(C)c1 [Example 83, methyl 5-({4-[(2-chloro-4-fluorobenzoyl)amino]-3-methylphenyl}carbamoyl)-1H-imidazole-4-carboxylate] | 0.39 | 29 |
| CCN(CC)CCCC(C)NC(=O)c1nc[nH]c1C(=O)Nc1ccc(NC(=O)c2ccc(F)cc2Cl)cc1 (stereo not drawn) [Example 380, N^5-{4-[(2-chloro-4-fluorobenzoyl)amino]phenyl}-N^4-[5-(diethylamino)pentan-2-yl]-1H-imidazole-4,5-dicarboxamide] | 0.47 | 24 |
| CC(C)CNC(=O)c1[nH]cnc1C(=O)Nc1ccc(NC(=O)c2ccc(F)cc2)cc1 [Example 146, N^4-{4-[(4-fluorobenzoyl)amino]phenyl}-N^5-isobutyl-1H-imidazole-4,5-dicarboxamide] | 5.15 | – |
| O=C(Nc1ccc(NC(=O)c2[nH]cnc2C(=O)NCCN2CCNC2=O)cc1)c1ccc(F)cc1Cl [Example 399, N^5-{4-[(2-chloro-4-fluorobenzoyl)amino]phenyl}-N^4-[2-(2-oxoimidazolidin-1-yl)ethyl]-1H-imidazole-4,5-dicarboxamide] | 1.2 | – |
| COC(=O)c1nc[nH]c1C(=O)Nc1ccc(NC(=O)c2ccc(F)cc2)c(F)c1 [Example 75, methyl-5-({3-fluoro-4-[(4-fluorobenzoyl)amino]phenyl}carbamoyl)-1H-imidazole-4-carboxylate] | 13 | – |

Continued, in another order:

| IC50 [2] [µM] | Structure (SMILES) | IC50 [1] [µM] |
| --- | --- | --- |
| 50 | CNC(=O)c1nc[nH]c1C(=O)Nc1ccc(NC(=O)c2cc(F)cc(F)c2)cc1 [Example 321, N^5-{4-[(3,5-difluorobenzoyl)amino]phenyl}-N^4-methyl-1H-imidazole-4,5-dicarboxamide] | – |
| 33 | CNC(=O)c1nc[nH]c1C(=O)Nc1ccc(NC(=O)c2c(OC)cccc2OC)cc1 [Example 57, N^5-{4-[(2,6-dimethoxybenzoyl)amino]phenyl}-N^4-methyl-1H-imidazole-4,5-dicarboxamide] | – |
| 1.3 | CNC(=O)c1nc[nH]c1C(=O)Nc1ccc(NC(=O)c2cc(F)ccc2F)cc1 [Example 318, N^5-{4-[(2,5-difluorobenzoyl)amino]phenyl}-N^4-methyl-1H-imidazole-4,5-dicarboxamide] | – |
| 6.58 | CNC(=O)c1nc[nH]c1C(=O)Nc1ccc(NC(=O)c2c(Cl)cc(Cl)cc2Cl)cc1 [Example 59, N^4-methyl-N^5-{4-[(2,4,6-trichlorobenzoyl)amino]phenyl}-1H-imidazole-4,5-dicarboxamide] | – |
| 4.2 | CNC(=O)c1nc[nH]c1C(=O)Nc1ccc(NC(=O)c2ccc(F)c(C)c2)cc1 [Example 373, N^5-{4-[(4-fluoro-3-methylbenzoyl)amino]phenyl}-N^4-methyl-1H-imidazole-4,5-dicarboxamide] | – |
| 50 | CNC(=O)c1nc[nH]c1C(=O)Nc1ccc(NC(=O)c2ccoc2)cc1 [Example 312, N^5-{4-[(furan-3-ylcarbonyl)amino]phenyl}-N^4-methyl-1H-imidazole-4,5-dicarboxamide] | – |
| 1.45 | CNC(=O)c1nc[nH]c1C(=O)Nc1ccc(NC(=O)c2c(F)ccc(F)c2F)cc1 [Example 323, N^4-methyl-N^5-{4-[(2,3,6-trifluorobenzoyl)amino]phenyl}-1H-imidazole-4,5-dicarboxamide] | – |
